Columns and labels:
Prothrombin = Prothrombin (Homo sapiens, UniProt P00734); assay: Binding affinity against thrombin
Serine protease 1 = Serine protease 1 (Homo sapiens, UniProt P07477); assay: Binding affinity against trypsin
Coagulation factor X [1] = biological target: T1, Coagulation factor X (Homo sapiens, UniProt P00742); assay: Binding affinity against serine protease factor Xa (fXa)
Coagulation factor X [2] = biological target: T1, Coagulation factor X; assay: Binding affinity against serine protease Coagulation factor X
[3] = biological target: Vitamin K-dependent protein C (Homo sapiens, UniProt P04070); assay: Binding affinity against activated protein C (APC)
[4] = biological target: Tissue-type plasminogen activator (Homo sapiens, UniProt P00750); assay: Binding affinity against tissue plasminogen activator (t-Pa)
Plasminogen = Plasminogen (Homo sapiens, UniProt P00747); assay: Binding affinity against plasmin
[5] = biological target: Coagulation factor X (Rattus norvegicus) (UniProt Q63207); assay: Inhibitory activity against factor Xa in rat plasma
Coagulation factor X (Rattus norvegicus), sequence (Q63207 whole entry, looked up): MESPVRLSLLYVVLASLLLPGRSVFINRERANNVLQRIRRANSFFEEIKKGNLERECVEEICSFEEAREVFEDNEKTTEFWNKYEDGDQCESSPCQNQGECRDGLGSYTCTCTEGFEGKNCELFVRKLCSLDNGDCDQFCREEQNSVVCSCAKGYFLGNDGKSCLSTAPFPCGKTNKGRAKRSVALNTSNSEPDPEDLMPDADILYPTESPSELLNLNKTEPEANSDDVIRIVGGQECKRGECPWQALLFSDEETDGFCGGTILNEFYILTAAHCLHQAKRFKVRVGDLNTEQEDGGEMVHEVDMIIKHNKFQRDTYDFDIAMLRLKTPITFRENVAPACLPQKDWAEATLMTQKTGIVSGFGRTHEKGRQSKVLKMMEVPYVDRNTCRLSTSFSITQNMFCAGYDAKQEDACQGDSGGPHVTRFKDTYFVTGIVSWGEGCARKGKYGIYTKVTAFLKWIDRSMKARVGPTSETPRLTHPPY

Vitamin K-dependent protein C, sequence (P04070 43-197 limits assumed): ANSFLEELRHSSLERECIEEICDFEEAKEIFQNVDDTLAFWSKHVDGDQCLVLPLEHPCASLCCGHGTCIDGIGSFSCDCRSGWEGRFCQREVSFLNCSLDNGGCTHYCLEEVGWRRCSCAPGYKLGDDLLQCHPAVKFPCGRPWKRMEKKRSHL
Vitamin K-dependent protein C, sequence (P04070 212-461 limits assumed): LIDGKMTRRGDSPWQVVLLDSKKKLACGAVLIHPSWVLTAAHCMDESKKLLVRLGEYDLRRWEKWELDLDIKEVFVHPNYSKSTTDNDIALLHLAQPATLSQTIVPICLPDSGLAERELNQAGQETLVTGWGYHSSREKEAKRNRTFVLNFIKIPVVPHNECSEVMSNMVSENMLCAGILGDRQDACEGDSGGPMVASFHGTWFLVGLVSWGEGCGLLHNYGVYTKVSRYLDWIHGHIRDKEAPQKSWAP
Serine protease 1, sequence (P07477 whole entry): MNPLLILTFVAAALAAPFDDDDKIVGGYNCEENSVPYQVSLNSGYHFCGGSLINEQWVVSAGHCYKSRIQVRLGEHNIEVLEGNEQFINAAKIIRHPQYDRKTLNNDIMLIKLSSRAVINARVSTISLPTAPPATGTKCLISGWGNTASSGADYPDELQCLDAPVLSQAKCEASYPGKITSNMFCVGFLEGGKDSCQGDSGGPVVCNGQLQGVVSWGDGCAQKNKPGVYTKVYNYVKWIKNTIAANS
T1 sequence (P00742 41-179 limits assumed): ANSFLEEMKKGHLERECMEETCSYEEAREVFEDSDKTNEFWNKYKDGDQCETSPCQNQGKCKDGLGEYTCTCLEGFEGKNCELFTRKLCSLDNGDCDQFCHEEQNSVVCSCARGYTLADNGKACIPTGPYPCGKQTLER
T1 sequence (P00742 235-488 limits assumed): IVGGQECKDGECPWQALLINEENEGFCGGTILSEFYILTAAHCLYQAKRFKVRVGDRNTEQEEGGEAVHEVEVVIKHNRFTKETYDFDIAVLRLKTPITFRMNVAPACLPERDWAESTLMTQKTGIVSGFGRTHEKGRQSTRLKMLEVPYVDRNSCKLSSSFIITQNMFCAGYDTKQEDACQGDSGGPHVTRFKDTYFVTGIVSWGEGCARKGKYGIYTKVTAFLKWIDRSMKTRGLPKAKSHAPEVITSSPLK
Tissue-type plasminogen activator, sequence (P00750 whole entry): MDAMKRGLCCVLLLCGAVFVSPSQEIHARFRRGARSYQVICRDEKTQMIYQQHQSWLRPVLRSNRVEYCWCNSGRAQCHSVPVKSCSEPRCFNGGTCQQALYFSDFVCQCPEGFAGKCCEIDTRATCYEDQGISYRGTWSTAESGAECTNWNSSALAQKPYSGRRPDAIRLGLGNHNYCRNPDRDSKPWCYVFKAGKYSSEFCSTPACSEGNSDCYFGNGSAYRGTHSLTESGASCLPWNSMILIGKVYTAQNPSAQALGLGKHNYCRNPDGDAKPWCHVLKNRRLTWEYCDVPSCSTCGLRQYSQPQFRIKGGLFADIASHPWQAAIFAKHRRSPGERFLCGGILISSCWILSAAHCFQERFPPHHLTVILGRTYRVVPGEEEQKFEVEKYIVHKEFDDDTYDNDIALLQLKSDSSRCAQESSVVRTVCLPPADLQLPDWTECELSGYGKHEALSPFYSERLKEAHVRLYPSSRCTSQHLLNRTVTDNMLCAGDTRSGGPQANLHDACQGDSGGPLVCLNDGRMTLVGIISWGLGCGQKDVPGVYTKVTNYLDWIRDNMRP
Plasminogen, sequence (P00747 97-580 limits assumed): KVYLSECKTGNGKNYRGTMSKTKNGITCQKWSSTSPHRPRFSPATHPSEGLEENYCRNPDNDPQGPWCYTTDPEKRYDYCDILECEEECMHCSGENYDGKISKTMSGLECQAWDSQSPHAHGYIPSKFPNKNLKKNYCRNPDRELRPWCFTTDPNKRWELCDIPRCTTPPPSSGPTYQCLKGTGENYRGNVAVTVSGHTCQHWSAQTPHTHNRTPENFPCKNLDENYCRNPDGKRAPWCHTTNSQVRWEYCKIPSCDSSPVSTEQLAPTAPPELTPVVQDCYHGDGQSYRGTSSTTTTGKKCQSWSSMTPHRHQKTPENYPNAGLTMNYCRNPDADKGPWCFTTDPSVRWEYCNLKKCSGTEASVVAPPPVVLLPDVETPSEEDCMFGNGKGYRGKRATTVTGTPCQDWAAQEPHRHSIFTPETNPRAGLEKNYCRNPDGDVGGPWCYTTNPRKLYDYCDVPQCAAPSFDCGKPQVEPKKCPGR
Plasminogen, sequence (P00747 581-810 limits assumed): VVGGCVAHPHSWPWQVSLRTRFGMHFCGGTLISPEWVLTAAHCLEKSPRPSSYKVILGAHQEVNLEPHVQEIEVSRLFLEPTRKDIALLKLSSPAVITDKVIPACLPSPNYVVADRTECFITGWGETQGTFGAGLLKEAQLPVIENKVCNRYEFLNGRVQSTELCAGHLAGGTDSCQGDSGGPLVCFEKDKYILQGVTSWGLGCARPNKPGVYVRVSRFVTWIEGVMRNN

Ki (Prothrombin)	Ki (Serine protease 1)	Ki (Coagulation factor X [1])	Ki (Coagulation factor X [2])	Ki [3]	Ki [4]	Ki (Plasminogen)	IC50 [5]	Structure (SMILES)
> 4000 nM	> 2900 nM	160 nM						N=C(N)c1cccc(CN2CC[C@H](NS(=O)(=O)c3ccc4nc(N)ccc4c3)C2=O)c1
> 4000 nM	> 2900 nM	110 nM						N=C(N)c1cccc(CN2CC[C@H](NS(=O)(=O)c3ccc4nc(Cl)ccc4c3)C2=O)c1
> 4000 nM	> 2900 nM		720 nM					N=C(N)c1cccc(CN2CC[C@H](NS(=O)(=O)c3ccc4ccc(Cl)nc4c3)C2=O)c1
> 4000 nM	> 2900 nM		120 nM					N=C(N)c1cccc(CN2CC[C@H](NS(=O)(=O)c3cc4ccc(Cl)nc4s3)C2=O)c1
> 4000 nM	> 2900 nM		480 nM					COc1ccc2ccc(S(=O)(=O)N[C@H]3CCN(Cc4cccc(C(=N)N)c4)C3=O)cc2n1
> 4000 nM	> 2900 nM	39 nM						N=C(N)c1cccc(CN2CC[C@H](NS(=O)(=O)c3cc4c(Cl)nccc4s3)C2=O)c1
> 4000 nM	> 2900 nM		240 nM					N=C(N)c1cccc(CN2CC[C@H](NS(=O)(=O)c3ccc4ccc(N)nc4c3)C2=O)c1
2600 nM	> 2900 nM	3 nM		> 18000 nM	8700 nM	> 7300 nM		N=C(N)c1ccc(O)c(CN2CC[C@H](NS(=O)(=O)c3cc4cnccc4s3)C2=O)c1
3100 nM	> 2900 nM	31 nM		> 18000 nM	> 8700 nM	5800 nM		N=C(N)c1cccc(CN2CC[C@H](NS(=O)(=O)c3cc4nc(Cl)ccc4s3)C2=O)c1
			36 nM					Cc1c(S(=O)(=O)N[C@H]2CCN(Cc3cccc(C(=N)N)c3)C2=O)sc2ccc(Cl)cc12
			~75 nM					N=C(N)c1cccc(CN2CC[C@H](NS(=O)(=O)c3ccc4cc(Cl)c(Cl)cc4c3)C2=O)c1
920 nM	1600 nM	1.5 nM		11000 nM	2700 nM	3600 nM		N=C(N)c1ccc(O)c(CN2CC[C@H](NS(=O)(=O)c3cc4nc(Cl)ccc4s3)C2=O)c1
	305 nM			1970 nM	1070 nM	2350 nM		COc1ccc2ccc(S(=O)(=O)N[C@H]3CCN(Cc4cc(C(=N)N)ccc4O)C3=O)cc2c1
> 4000 nM	> 2900 nM	> 1200 nM						CCOc1ccc2cc(S(=O)(=O)N[C@H]3CCN(Cc4cccc(C(=N)N)c4)C3=O)ccc2n1
> 4000 nM	> 2900 nM	200 nM						N=C(N)c1cccc(CN2CC[C@H](NS(=O)(=O)c3ccc4ncccc4c3)C2=O)c1
> 4000 nM	> 2900 nM		380 nM					N=C(N)c1cccc(CN2CC[C@H](NS(=O)(=O)c3ccc4cnccc4c3)C2=O)c1
210 nM	860 nM	5 nM		9500 nM	> 8700 nM	> 7300 nM		COc1ccc2sc(S(=O)(=O)N[C@H]3CCN(Cc4cc(C(=N)N)ccc4N)C3=O)cc2n1
4000 nM	> 2900 nM	2 nM		8000 nM	8700 nM	4500 nM		N=C(N)c1ccc(O)c(CN2CC[C@H](NS(=O)(=O)c3cc4c(Cl)nccc4s3)C2=O)c1
> 4000 nM	2900 nM	88 nM						N=C(N)c1cccc(CN2CC[C@H](NS(=O)(=O)c3cc4cccnc4s3)C2=O)c1
> 4000 nM	> 2900 nM	26 nM		12000 nM	> 8700 nM	> 7300 nM		N=C(N)c1cccc(CN2CC[C@H](NS(=O)(=O)c3cc4ncccc4s3)C2=O)c1
2600 nM	> 2900 nM	5 nM		5500 nM	7500 nM	7300 nM		N=C(N)c1ccc(O)c(CN2CC[C@H](NS(=O)(=O)c3cc4ccnc(Cl)c4s3)C2=O)c1
2000 nM	> 2900 nM		2 nM	18000 nM	> 8700 nM	6200 nM	11 nM	N=C(N)c1ccc(O)c(CN2CC[C@H](NS(=O)(=O)c3cc4ccncc4s3)C2=O)c1
> 4000 nM	> 2900 nM		490 nM					N=C(N)c1cccc(CN2CC[C@H](NS(=O)(=O)c3ccc4ccnc(N)c4c3)C2=O)c1
> 4000 nM	> 2900 nM		510 nM					N=C(N)c1cccc(CN2CC[C@H](NS(=O)(=O)c3ccc4ccncc4c3)C2=O)c1
> 4000 nM	> 2900 nM		420 nM					N=C(N)c1cccc(CN2CC[C@H](NS(=O)(=O)c3ccc4cccnc4c3)C2=O)c1
> 4000 nM	> 2900 nM		90 nM					N=C(N)c1cccc(CN2CC[C@H](NS(=O)(=O)c3ccc4c(N)nccc4c3)C2=O)c1
4000 nM	1000 nM	0.7 nM		5200 nM	360 nM	2300 nM		N=C(N)c1ccc(O)c(CN2CC[C@H](NS(=O)(=O)c3cc4ncccc4s3)C2=O)c1
1100 nM	1800 nM	3 nM		4200 nM	> 8700 nM	1500 nM		N=C(N)c1ccc(N)c(CN2CC[C@H](NS(=O)(=O)c3cc4nc(Cl)ccc4s3)C2=O)c1

— ChEMBL document CHEMBL1131988, “Synthesis, SAR and in vivo activity of novel thienopyridine sulfonamide pyrrolidinones as factor Xa inhibitors” (Bioorg Med Chem Lett, 1999)
